According to US20160199535A1, “Controlled and Localized Release of Retinoids to Improve Neointimal Hyperplasia” (VesselTek BioMedical LLC, priority 2008, published 2016):
≈ marks a conversion by molar mass, not a printed value.

How the values were obtained:
[1] = cited from earlier work
[2] = test system: human monocytic THP-1 cells; assay: Assessment of inflammatory potential, marker expression via ELISA; type: cell-based; details: THP-1 cell suspension exposed to material films, LPS positive control
Protocol: For assessment of inflammatory potential, a suspension of human monocytic THP-1 cells was exposed to POC, TCP, PLGA, and ePTFE films. Afterwards, the expression of tissue factor, IL-6, and TNF-α was measured via ELISA. Addition of lipopolysaccharide (LPS) to the cells was used as a positive control.

Molecule	solubility in dimethylsulfoxide (DMSO) ([1]; DMSO)	solubility in chloroform ([1]; chloroform)	solubility in dichloromethane ([1]; dichloromethane)	solubility in ethanol ([1]; ethanol)	solubility in water ([1]; water)	TNF-α expression [2]	Tissue factor expression [2]
CC1=C(/C=C/C(C)=C/C=C/C(C)=C/C(=O)O)C(C)(C)CCC1 [ATRA, All-trans retinoic acid]	soluble	soluble	soluble	3000 µg/mL (≈ 9.99 mM)	not readily soluble		
lipopolysaccharide [LPS]						874 ± 531	536 ± 81
